From ChEMBL document CHEMBL5050834, “Cyclic trex1 inhibitors” (2021)
Calls of active or inactive are those of the source. The rule behind the calls is not given here.

Assays:
[1] = Inhibition of human TREX1 exonuclease activity using labeled DNA oligonucleotide as substrate incubated for 30 mins and measured after 45 mins by fluorescence assay
[2] = Inhibition of TREX1 in human THP1-Dual cells assessed as activation of cGAS-STING pathway measured by ISRE luciferase reporter gene assay; assay type: cell-based
MB49 = test: Antitumor activity against mouse MB49 cells xenografted in female C57BL/6 mouse assessed as reduction in tumor volume at 100 ug, IT(Intratumoral) followed by 10 Gy gamma irradiation; assay type: functional, cell-based; conditions: dose 100.0 µg

Compound	IC50 [1]	other results
N[C@@H]1C[C@H]2C(=O)N([C@H](CCC(=O)O)C(=O)NCc3ccc(Cl)c(Cl)c3F)CCC(CCc3ccccc3)N2C1 (stereo partly drawn)	< 1 µM	EC50 [2]: 1 µM
N[C@@H]1C[C@H]2C(=O)N([C@H](CCc3nnn[nH]3)C(=O)NCc3ccc(Cl)c(Cl)c3F)CCC(CCc3ccccc3)N2C1 (stereo partly drawn)	< 1 µM	EC50 [2]: 1 µM
N[C@@H]1C[C@H]2C(=O)N([C@H](CCC(=O)NO)C(=O)NCc3ccc(Cl)c(Cl)c3)CCC(COc3cccc(F)c3)N2C1 (stereo partly drawn)	< 1 µM	–
CCOC(=O)CC[C@H](C(=O)N1CCOC[C@H]1c1ccc(Cl)c(Cl)c1)N1CCC(CCc2ccccc2)N2C[C@H](N)C[C@H]2C1=O (stereo partly drawn)	< 1 µM	–
CONC(=O)CC[C@H](C(=O)NCc1ccc(Cl)c(Cl)c1)N1CCC(CCc2ccccc2)N2C[C@H](N)C[C@H]2C1=O (stereo partly drawn)	< 1 µM	–
N[C@@H]1C[C@H]2C(=O)N([C@H](CCC(=O)O)C(=O)N3CCCC[C@H]3c3ccc(Cl)c(Cl)c3)CCC(CCc3ccccc3)N2C1 (stereo partly drawn)	< 1 µM	–
N[C@@H]1C[C@H]2C(=O)N([C@H](CCC(=O)O)C(=O)NCc3cc(Cl)c(Cl)cn3)CCC(CCc3ccccc3)N2C1 (stereo partly drawn)	< 1 µM	–
CCOC(=O)CC[C@H](C(=O)NCc1cc(Cl)c(Cl)cc1F)N1CCC(CCc2ccccc2)N2C[C@H](N)C[C@H]2C1=O (stereo partly drawn)	< 1 µM	–
CC(C)OC(=O)CC[C@H](C(=O)NCc1ccc(Cl)c(Cl)c1)N1CCC(CCc2ccccc2)N2C[C@H](N)C[C@H]2C1=O (stereo partly drawn)	< 1 µM	–
CC(C)C[C@H](C(=O)N(C)Cc1ccc(Cl)c(Cl)c1)N1CCC(CCc2ccccc2)N2C[C@H](N)C[C@H]2C1=O (stereo partly drawn)	< 1 µM	–
N[C@@H]1C[C@H]2C(=O)N([C@@H]3CCCN(S(=O)(=O)c4ccccc4)C3)CCC(CCc3ccccc3)N2C1 (stereo partly drawn)	in the range around 10 µM	–
COc1c(CNC(=O)[C@@H](CCC(N)=O)N2CCC(CCc3ccccc3)N3C[C@H](N)C[C@H]3C2=O)ccc(Cl)c1Cl (stereo partly drawn)	< 1 µM	–
CC(C)Oc1c(CNC(=O)[C@@H](CCC#N)N2CCC(CCc3ccccc3)N3C[C@H](N)C[C@H]3C2=O)ccc(Cl)c1Cl (stereo partly drawn)	< 1 µM	–
N[C@@H]1C[C@H]2C(=O)N([C@H](CCNS(=O)(=O)C3CC3)C(=O)NCc3ccc(Cl)c(Cl)c3)CCC(CCc3ccccc3)N2C1 (stereo partly drawn)	< 1 µM	–
CC(=O)NCC[C@H](C(=O)NCc1ccc(Cl)c(Cl)c1)N1CCC(CCc2ccccc2)N2C[C@H](N)C[C@H]2C1=O (stereo partly drawn)	< 1 µM	–
N[C@@H]1C[C@H]2C(=O)N([C@H](CCC(=O)O)C(=O)NCc3ccc(Cl)c(Cl)c3)CCC(COc3ccccc3F)N2C1 (stereo partly drawn)	< 1 µM	–
CC(C)C[C@H](C(=O)NCc1ccc(F)c(F)c1)N1CCC(CCc2ccccc2)N2C[C@H](N)C[C@H]2C1=O (stereo partly drawn)	< 1 µM	–
N[C@@H]1C[C@H]2C(=O)N([C@H](CCNS(=O)(=O)C(F)(F)F)C(=O)NCc3ccc(Cl)c(Cl)c3)CCC(CCc3ccccc3)N2C1 (stereo partly drawn)	< 1 µM	–
N[C@@H]1C[C@H]2C(=O)N([C@H]3CCCN(C(=O)c4ccc(Cl)c(Cl)c4)C3)CCC(CCc3ccccc3)N2C1 (mixture of isomers)	in the range around 10 µM	–

Compound	IC50 [1]	other results
CC(C)C[C@H](C(=O)NCc1ccc(Cl)c(F)c1)N1CCC(CCc2ccccc2)N2C[C@H](N)C[C@H]2C1=O (stereo partly drawn)	< 1 µM	–
N#CC[C@H](C(=O)NCc1ccc(Cl)c(C(F)(F)F)c1)N1CCC(CCc2ccccc2)N2C[C@H](N)C[C@H]2C1=O (stereo partly drawn)	< 1 µM	–
CCN(CC)C(=O)COC(=O)CC[C@H](C(=O)NCc1ccc(Cl)c(Cl)c1)N1CCC(CCc2ccccc2)N2C[C@H](N)C[C@H]2C1=O (stereo partly drawn)	< 1 µM	–
CC(C)C[C@H](C(=O)NCc1ccc(C(F)(F)F)c(F)c1)N1CCC(CCc2ccccc2)N2C[C@H](N)C[C@H]2C1=O (stereo partly drawn)	< 1 µM	–
N#CCC[C@H](C(=O)NCc1ccc(Cl)c(Cl)c1)N1CCC(COc2cccc(F)c2)N2C[C@H](N)C[C@H]2C1=O (stereo partly drawn)	< 1 µM	–
N[C@@H]1C[C@H]2C(=O)N([C@H](CCC(=O)O)C(=O)NCc3ccc(Cl)c(Cl)c3)CCC(CCOc3ccccc3)N2C1 (stereo partly drawn)	in the range around 1 µM	–
CC(C)C[C@H](CNC(=O)c1ccc(Cl)c(Cl)c1)N1CCC(CCc2ccccc2)N2C[C@H](N)C[C@H]2C1=O (stereo partly drawn)	in the range around 1 µM	–
CCOC(=O)N[C@@H]1C[C@H]2C(=O)N([C@H](CCC(=O)O)C(=O)NCc3ccc(Cl)c(Cl)c3)CCC(CCc3ccccc3)N2C1 (stereo partly drawn)	in the range around 10 µM	–
N[C@@H]1C[C@H]2C(=O)N([C@H](CCC(=O)O)C(=O)N3CCOC[C@H]3c3ccc(Cl)c(Cl)c3)CCC(CCc3ccccc3)N2C1 (stereo partly drawn)	< 1 µM	–
N[C@@H]1C[C@H]2C(=O)N([C@H](CSc3ccccc3O)C(=O)NCc3ccc(Cl)c(Cl)c3)CCC(CCc3ccccc3)N2C1 (stereo partly drawn)	< 1 µM	–
N#CC[C@H](C(=O)N1CCc2c(ccc(Cl)c2Cl)C1)N1CCC(CCc2ccccc2)N2C[C@H](N)C[C@H]2C1=O (stereo partly drawn)	in the range around 1 µM	–
Cc1ccc(CNC(=O)[C@@H](CC(C)C)N2CCC(CCc3ccccc3)N3C[C@H](N)C[C@H]3C2=O)cc1Cl (stereo partly drawn)	< 1 µM	–
N[C@@H]1C[C@H]2C(=O)N([C@H]3CCCN(Cc4ccc(Cl)c(Cl)c4)C3=O)CCC(CCc3ccccc3)N2C1 (stereo partly drawn)	< 1 µM	–
N[C@@H]1C[C@H]2C(=O)N([C@@H]3CCCN(C(=O)c4ccc(Cl)c(Cl)c4)C3)CCC(CCc3ccccc3)N2C1 (stereo partly drawn)	in the range around 10 µM	–
CCOC(=O)CC[C@H](C(=O)NCc1ccc(Cl)c(Cl)c1)N1CCC(CCc2ccccc2)N2C[C@H](NC(=O)OCC)C[C@H]2C1=O (stereo partly drawn)	in the range around 10 µM	–
N#CCC[C@H](C(=O)NCc1ccc(Cl)c(Cl)c1)N1CCC(COc2ccc(F)cc2)N2C[C@H](N)C[C@H]2C1=O (stereo partly drawn)	< 1 µM	–
CCOC(=O)CC[C@H](C(=O)NCc1cc(Cl)c(Cl)cc1OC)N1CCC(CCc2ccccc2)N2C[C@H](N)C[C@H]2C1=O (stereo partly drawn)	< 1 µM	–
N[C@@H]1C[C@H]2C(=O)N([C@H](CCC(=O)O)C(=O)NCc3ccc(Cl)cn3)CCC(CCc3ccccc3)N2C1 (stereo partly drawn)	< 1 µM	–
N[C@@H]1C[C@H]2C(=O)N([C@H](CCC(=O)O)C(=O)NCc3ccc(Cl)c(C(F)(F)F)c3)CCC(CCc3ccccc3)N2C1 (stereo partly drawn)	< 1 µM	–

Compound	IC50 [1]	other results
CC(C)C[C@H](C(=O)NCc1ccc(Cl)c(Cl)c1)N1CCC(CS(=O)(=O)c2ccccc2)N2C[C@H](N)C[C@H]2C1=O (stereo partly drawn)	in the range around 1 µM	–
Cn1c(Cl)ccc(CNC(=O)[C@@H](CCC(=O)O)N2CCC(CCc3ccccc3)N3C[C@H](N)C[C@H]3C2=O)c1=O (stereo partly drawn)	< 1 µM	–
CCOC(=O)CC[C@H](C(=O)NCc1ccc(Cl)c(Cl)c1OC)N1CCC(CCc2ccccc2)N2C[C@H](N)C[C@H]2C1=O (stereo partly drawn)	< 1 µM	–
COc1c(CNC(=O)[C@@H](CCC(=O)O)N2CCC(CCc3ccccc3)N3C[C@H](N)C[C@H]3C2=O)ccc(Cl)c1Cl (stereo partly drawn)	< 1 µM	–
CN(Cc1ccc(Cl)c(Cl)c1)C(=O)[C@@H](CC#N)N1CCC(CCc2ccccc2)N2C[C@H](N)C[C@H]2C1=O (stereo partly drawn)	< 1 µM	–
N[C@@H]1C[C@H]2C(=O)N([C@H](CCC(=O)O)C(=O)NCc3ccc(Cl)c(Cl)c3)CCC(CCc3ccccc3)N2C1 (stereo partly drawn)	–	Activity (MB49): Active
CC(C)C[C@H](C(=O)NCc1ccc(Cl)c(Cl)c1)N1CCC(C[S+]([O-])c2ccccc2)N2C[C@H](N)C[C@H]2C1=O (stereo partly drawn)	< 1 µM	–
NC(=O)C[C@H](C(=O)NCc1ccc(Cl)c(Cl)c1)N1CCC(CCc2ccccc2)N2C[C@H](N)C[C@H]2C1=O (stereo partly drawn)	< 1 µM	–
CCOC(=O)CC[C@H](C(=O)NCc1ccc(Cl)c(Cl)n1)N1CCC(CCc2ccccc2)N2C[C@H](N)C[C@H]2C1=O (stereo partly drawn)	< 1 µM	–
COC(=O)CC[C@H](C(=O)NS(=O)(=O)c1ccc(Cl)c(Cl)c1)N1CCC(CCc2ccccc2)N2C[C@H](N)C[C@H]2C1=O (stereo partly drawn)	< 1 µM	–
N[C@@H]1C[C@H]2C(=O)N([C@H](CCC(=O)O)C(=O)NCc3cc(Cl)c(Cl)cc3F)CCC(CCc3ccccc3)N2C1 (stereo partly drawn)	< 1 µM	–
CNC(=O)CC[C@H](C(=O)NCc1ccc(Cl)c(Cl)c1)N1CCC(CCc2ccccc2)N2C[C@H](N)C[C@H]2C1=O (stereo partly drawn)	< 1 µM	–
Cc1nnc(CC[C@H](C(=O)NCc2ccc(Cl)c(Cl)c2F)N2CCC(CCc3ccccc3)N3C[C@H](N)C[C@H]3C2=O)[nH]1 (stereo partly drawn)	< 1 µM	–
N[C@@H]1C[C@H]2C(=O)N([C@H](CCC(=O)O)C(=O)NCc3ccc(Cl)c(Cl)c3)CCC(COc3cnccn3)N2C1 (stereo partly drawn)	in the range around 1 µM	–
COc1ccc(OCC2CCN([C@H](CCC(=O)O)C(=O)NCc3ccc(Cl)c(Cl)c3)C(=O)[C@@H]3C[C@@H](N)CN23)cc1 (stereo partly drawn)	in the range around 1 µM	–
NC(=O)CC[C@H](C(=O)NCc1ccc(Cl)c(Cl)c1F)N1CCC(CCc2ccccc2)N2C[C@H](N)C[C@H]2C1=O (stereo partly drawn)	< 1 µM	–
COc1ccc(CNC(=O)[C@@H](CC(C)C)N2CCC(CCc3ccccc3)N3C[C@H](N)C[C@H]3C2=O)cc1 (stereo partly drawn)	< 1 µM	–
CS(=O)(=O)NCC[C@H](C(=O)NCc1ccc(Cl)c(Cl)c1)N1CCC(CCc2ccccc2)N2C[C@H](N)C[C@H]2C1=O (stereo partly drawn)	< 1 µM	–
